Measurements: the NIST ThermoML archive (doi:10.1021/je300873x)

Test: mn = molality of the nth substance listed, in mol/kg
Conditions: for surface tension liquid-gas: Pendant drop shape; for electrical conductivity: Liquid, Digital conductivity meter

O [water] + CCCCCCCCCCCC[N+](C)(C)CCO.[Br-]
Conditions	surface tension liquid-gas [mN/m]
298.15 K, m2 = 0	72.17

O [water] + CCCCCCCCCCCC[N+](C)(CCO)CCO.[Br-]
Conditions	surface tension liquid-gas [mN/m]
298.15 K, m2 = 0	72.17

O [water] + CCCCCCCCCCCCCC[N+](C)(C)CCO.[Br-]
Conditions	surface tension liquid-gas [mN/m]
298.15 K, m2 = 0	72.17

CCCCCCCCCCCCCC[N+](C)(CCO)CCO.[Br-] [N,N-bis(2-hydroxyethyl)-N-methyltetradecanaminium bromide] + O
Conditions	electrical conductivity [S/m]	surface tension liquid-gas [mN/m]
298.15 K, m1 = 0.0003	–	64.43
298.15 K, m1 = 0.00061	–	59.09
298.15 K, m1 = 0.00081	–	56.14
298.15 K, m1 = 0.00102	–	54.31
298.15 K, m1 = 0.00152	–	48.51
298.15 K, m1 = 0.00203	–	44.69
298.15 K, m1 = 0.00254	–	40.4
298.15 K, m1 = 0.0026	0.021	–
298.15 K, m1 = 0.0027	0.0218	–
298.15 K, m1 = 0.0028	0.0226	–
298.15 K, m1 = 0.00292	0.0235	–
298.15 K, m1 = 0.00305	0.0242	38.3
298.15 K, m1 = 0.00319	0.025	–
298.15 K, m1 = 0.00334	0.0255	–
298.15 K, m1 = 0.00351	0.0259	–
298.15 K, m1 = 0.00369	0.0262	–
298.15 K, m1 = 0.0039	0.0267	–
298.15 K, m1 = 0.00412	0.0272	–
298.15 K, m1 = 0.00438	0.0277	–
298.15 K, m1 = 0.00467	0.0283	38.31
298.15 K, m1 = 0.00501	0.0289	–
298.15 K, m1 = 0.00508	–	38.46
298.15 K, m1 = 0.00539	0.0298	–
298.15 K, m1 = 0.00584	0.0306	–
298.15 K, m1 = 0.00609	–	38.23
298.15 K, m1 = 0.00637	0.0317	–
298.15 K, m1 = 0.00812	–	38.23
303.15 K, m1 = 0.00259	0.0232	–
303.15 K, m1 = 0.00269	0.024	–
303.15 K, m1 = 0.0028	0.025	–
303.15 K, m1 = 0.00292	0.0257	–
303.15 K, m1 = 0.00304	0.0268	–
303.15 K, m1 = 0.00318	0.0278	–
303.15 K, m1 = 0.00333	0.0282	–
303.15 K, m1 = 0.0035	0.029	–
303.15 K, m1 = 0.00369	0.0295	–
303.15 K, m1 = 0.00389	0.03	–
303.15 K, m1 = 0.00412	0.0305	–
303.15 K, m1 = 0.00438	0.0311	–
303.15 K, m1 = 0.00467	0.0318	–
303.15 K, m1 = 0.005	0.0325	–
303.15 K, m1 = 0.00539	0.0334	–
303.15 K, m1 = 0.00584	0.0343	–
303.15 K, m1 = 0.00637	0.0356	–
308.15 K, m1 = 0.00259	0.0256	–
308.15 K, m1 = 0.00269	0.0264	–
308.15 K, m1 = 0.0028	0.0274	–
308.15 K, m1 = 0.00291	0.0285	–
308.15 K, m1 = 0.00304	0.0297	–
308.15 K, m1 = 0.00318	0.0309	–
308.15 K, m1 = 0.00333	0.0318	–
308.15 K, m1 = 0.0035	0.0325	–
308.15 K, m1 = 0.00368	0.0331	–
308.15 K, m1 = 0.00388	0.0336	–
308.15 K, m1 = 0.00411	0.0342	–
308.15 K, m1 = 0.00437	0.0349	–
308.15 K, m1 = 0.00466	0.0357	–
308.15 K, m1 = 0.00499	0.0367	–
308.15 K, m1 = 0.00538	0.0376	–
308.15 K, m1 = 0.00583	0.0387	–
308.15 K, m1 = 0.00636	0.0401	–
313.15 K, m1 = 0.00258	0.028	–
313.15 K, m1 = 0.00268	0.0291	–
313.15 K, m1 = 0.00279	0.0303	–
313.15 K, m1 = 0.00291	0.0314	–
313.15 K, m1 = 0.00303	0.0327	–
313.15 K, m1 = 0.00317	0.0341	–
313.15 K, m1 = 0.00332	0.0353	–
313.15 K, m1 = 0.00349	0.0364	–
313.15 K, m1 = 0.00367	0.0373	–
313.15 K, m1 = 0.00388	0.038	–
313.15 K, m1 = 0.0041	0.0386	–
313.15 K, m1 = 0.00436	0.0396	–
313.15 K, m1 = 0.00465	0.0403	–
313.15 K, m1 = 0.00498	0.0411	–
313.15 K, m1 = 0.00537	0.0424	–
313.15 K, m1 = 0.00582	0.0437	–
313.15 K, m1 = 0.00634	0.0453	–
318.15 K, m1 = 0.00258	0.0307	–
318.15 K, m1 = 0.00268	0.0318	–
318.15 K, m1 = 0.00279	0.033	–
318.15 K, m1 = 0.0029	0.0344	–
318.15 K, m1 = 0.00303	0.0355	–
318.15 K, m1 = 0.00317	0.0372	–
318.15 K, m1 = 0.00332	0.0389	–
318.15 K, m1 = 0.00348	0.0407	–
318.15 K, m1 = 0.00367	0.0413	–
318.15 K, m1 = 0.00387	0.0425	–
318.15 K, m1 = 0.0041	0.0436	–
318.15 K, m1 = 0.00435	0.0446	–
318.15 K, m1 = 0.00464	0.0455	–
318.15 K, m1 = 0.00497	0.0467	–
318.15 K, m1 = 0.00536	0.0478	–
318.15 K, m1 = 0.0058	0.0494	–
318.15 K, m1 = 0.00633	0.0511	–
323.15 K, m1 = 0.00257	0.0334	–
323.15 K, m1 = 0.00267	0.0347	–
323.15 K, m1 = 0.00278	0.0359	–
323.15 K, m1 = 0.0029	0.0374	–
323.15 K, m1 = 0.00302	0.0388	–
323.15 K, m1 = 0.00316	0.0406	–
323.15 K, m1 = 0.00331	0.0424	–
323.15 K, m1 = 0.00347	0.0444	–
323.15 K, m1 = 0.00366	0.0464	–
323.15 K, m1 = 0.00386	0.0477	–
323.15 K, m1 = 0.00409	0.049	–
323.15 K, m1 = 0.00434	0.0502	–
323.15 K, m1 = 0.00463	0.0514	–
323.15 K, m1 = 0.00496	0.0526	–
323.15 K, m1 = 0.00535	0.054	–
323.15 K, m1 = 0.00579	0.0559	–
323.15 K, m1 = 0.00632	0.0577	–
